Measured values published in patent US20240374646A1, “COMPOSITION FOR INHIBITING INFLAMMATION OR AGING OF STEM CELLS, AND METHOD FOR INHIBITING INFLAMMATION OR AGING BY USING SAME” (MITOIMMUNE THERAPEUTICS INC., priority 2021, published 2024).

Experiments:
Assay type in all cases: cell-based, human
IL-6 = assay: Real-time qPCR, SASP factor IL-6; settings: vs MSCs exposed to TNF-α/IFN-γ; FIG. 4B
Description: (§1) Real-time qPCR was performed using an Easy-Spin Total RNA Kit (iNtRON, Seongnam, Korea) to extract total RNA from hPD-MSCs and RNA concentration was adjusted to 100 ng/μL using a microplate spectrophotometer (Epoch™ Microplate Spectrophotometer, BioTek, Winooski, VT, USA), and the extracted RNA was reverse transcribed into cDNA using RT PreMix (dT20) (Bioneer, Seoul, Korea) using a SimpliAmp Thermal Cycler (Life Technologies, Carlsbad, CA, USA). Real-time qPCR was performed using a real-time PCR machine (CFX Connect, Bio-Rad, Hercules, CA, USA), SYBR Green Supermix (Bio-Rad) and the relevant primers, and all experiments were performed in triplicate for statistical analysis.
In the present experiment, the expression of IL-1β, IL-6, and monocyte chemotactic protein-1 (MCP-1), which are SASP-associated factors of the untreated MSC control, the TNF-α/IFN-γ-exposed MSC control (TI), and the experimental group treated with the example compound in the TNF-α/IFN-γ-exposed MSC control was analyzed by real-time qPCR. As the real-time qPCR analysis method, the same method described in Experimental Example 1-2 above was used, and the results are shown in FIGS. 4A to 4C.

mitofusion 2 (MFN2) = assay: Real-time qPCR, mitochondrial dynamics gene MFN2; settings: vs TNF-α/IFN-γ-exposed MSC control (TI); FIG. 2B
Description: as §1
To investigate mitochondrial dynamics, real-time qPCR was performed to analyze the expression of dynamin-related protein 1 (DRP1), which is a mitochondrial division-related gene, and mitofusion 1 (MFN1) and mitofusion 2 (MFN2), which are […] mitochondrial membrane fusion-related genes. As the real-time qPCR analysis method, the same method described in Experimental Example 1-2 above was used, and the results are shown in FIG. 2B.

AKT = assay: Western blotting, AKT phosphorylation ratio (mTORC1 pathway); settings: vs MSC control exposed to TNF-α/IFN-γ; FIG. 4D
Description: Further, the phosphorylation-induced activation ratios of AKT/mTOR/S6K, which represents the mTORC1 pathway, was analyzed. mTORC1 activation is known to not only induce senescence-associated phenotypes in MSCs, but also impair quiescence and sternness. In the present experiment, the phosphorylation ratio was confirmed using western blotting analysis as described below.
Proteins were extracted with a Pro-Prep protein lysis buffer (iNtRON) and quantified by a protein quantitative analysis kit (BIOMAX, Seoul, Korea). Samples were then heated in 4× Laemmli sample buffer (Bio-Rad) containing 2-mercaptoethanol (Bio-Rad), and proteins were loaded onto an 8% sodium dodecyl sulfate polyacrylamide gel and electrophoresed at 60 V for 30 minutes, and then electrophoresed at 120 V for 1 hour. […]
Immunoreactive bands were detected using an enhanced chemiluminescence detection reagent (Clarity™ Western blot substrate, Bio-Rad) and images of the bands were obtained using ImageSaver Version 6 (ATTO, Tokyo, Japan). The intensity of each band was analyzed with CA4 analyzer software (ATTO), and each experiment was performed in triplicate under the same conditions. […]

NANOG = assay: Real-time qPCR, NANOG stemness gene expression; settings: TNF-α/IFN-γ-exposed MSCs (TI) treated with compound; FIG. 1B
Description: (§2) Human placenta-derived mesenchymal stem cells (hPD-MSCs) were harvested from inside the placental chorion, and the harvested cells were cultured in an alpha-Minimum Essential medium (Cytiva, Marlborough, MA, USA) supplemented with 10% fetal bovine serum (ThermoFisher, Waltham, MA, USA), 1% penicillin/streptomycin (ThermoFisher, Waltham, MA, USA), 25 ng/mL human fibroblast growth factor-4 (Peprotech, Rocky Hill, NJ, USA) and 1 μg/mL heparin (Merck, San Francisco, CA, USA). A total of 1×10^5 hPD-MSCs were seeded in a cell culture dish (90×20 mm) (SPL, Pocheon, Korea) and cultured at 37° C. in an incubator containing 5% CO2. The cells were subcultured every 4 days until reaching 70 to 80% confluency. Expanded cells were obtained at passage 12 or 13. During subculture, viable cells were stained with Trypan blue (Merck) and the number of cells was manually counted.
(§3) In a passage for sample extraction, hPD-MSCs were cultured for 24 hours in a medium with or without an example compound (5-[(1,1-dioxido-4-thiomorpholinyl)methyl]-2-phenyl-N-(tetrahydro-2H-pyran-4-yl)-1H-indole-7-amine) while including 2.5 ng/mL TNF-α (Peprotech) and 25 ng/mL IFN-γ (Peprotech).
(§4) In the present experiment, the expression levels of stem cell differentiation-related genes and cell cycle-related genes were analyzed by qPCR. […]

p16 = assay: Real-time qPCR, p16 cell cycle-related gene expression; settings: TNF-α/IFN-γ-exposed MSCs treated with compound; FIG. 1C
Description: as §2, §3, §4

## O=S1(=O)CCN(Cc2cc(NC3CCOCC3)c3[nH]c(-c4ccccc4)cc3c2)CC1 [example compound, 5-[(1,1-dioxido-4-thiomorpholinyl)methyl]-2-phenyl-N-(tetrahydro-2H-pyran-4-yl)-1H-indole-7-amine]
IL-6
  IL-6 expression level: decreased
Mitofusion 2 (MFN2)
  reduction of MFN2 expression: ~50%
AKT
  reduction of AKT phosphorylation ratio (pAKT/AKT): about 25%
NANOG
  NANOG expression (relative to untreated MSC control): significantly increased to a level similar to that of the untreated MSC control
p16
  p16 expression (relative to untreated MSC control): remarkably decreased
